Test results: ChEMBL document CHEMBL1201862, “PubChem BioAssay data set” (2004)
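How tested: cells in 96-well plates exposed to compound for 48 hours at five concentrations. At the GI50, growth is halved.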 Calls of active or inactive are those of the source. Rule as the data show it: active = GI50 up to about 1.1 µM and inactive = higher.

What was measured:
Test in all cases: inhibition of tumour cell growth, NCI panel, 48 h
T47D = system: T47D
SN12C = system: SN12C
OVCAR-4 = system: OVCAR-4
MCF7 = system: MCF7
PC-3 = system: PC-3
MDA-MB-435 = system: MDA-MB-435
BT-549 = system: BT-549
UO-31 = system: UO-31
SK-MEL-5 = system: SK-MEL-5
NCI-H522 = system: NCI-H522
SW-620 = system: SW-620
NCI-H460 = system: NCI-H460
OVCAR-5 = system: OVCAR-5
K562 = system: K562
HOP-62 = system: HOP-62
SF-295 = system: SF-295
SK-OV-3 = system: SK-OV-3
Malme-3M = system: Malme-3M
SNB-75 = system: SNB-75
HL-60 = system: HL-60

| Structure (SMILES) | GI50 (T47D) | GI50 (SN12C) | GI50 (OVCAR-4) | GI50 (MCF7) | GI50 (PC-3) | GI50 (MDA-MB-435) | GI50 (BT-549) | GI50 (UO-31) | GI50 (SK-MEL-5) | GI50 (NCI-H522) | GI50 (SW-620) | GI50 (NCI-H460) | GI50 (OVCAR-5) | GI50 (K562) | GI50 (HOP-62) | GI50 (SF-295) | GI50 (SK-OV-3) | GI50 (Malme-3M) | GI50 (SNB-75) | GI50 (HL-60) |
| --- | --- | --- | --- | --- | --- | --- | --- | --- | --- | --- | --- | --- | --- | --- | --- | --- | --- | --- | --- | --- |
| N#CC1=C(N)OC2=C(CCCc3ccc([N+](=O)[O-])cc32)C1c1ccccc1 (stereo not given) | 6.24 µM (inactive) | 6 µM (inactive) | 6.41 µM (inactive) | 3.45 µM (inactive) | 8.3 µM (inactive) | 1.42 µM (inactive) | 4.5 µM (inactive) | 8.79 µM (inactive) | 3.38 µM (inactive) | 2.14 µM (inactive) | 3.63 µM (inactive) | 4.49 µM (inactive) | 11 µM (inactive) | 2.57 µM (inactive) | 4.17 µM (inactive) | 3.21 µM (inactive) | 8.07 µM (inactive) | 7.45 µM (inactive) | 82.8 µM (inactive) | 1.64 µM (inactive) |
| CN(C)CCCNc1ccnc2cccc([N+](=O)[O-])c12 | 34.3 µM (inactive) | 15.8 µM (inactive) | 6.18 µM (inactive) | 10.7 µM (inactive) | 14.3 µM (inactive) | 15.3 µM (inactive) | 21.8 µM (inactive) | 13.3 µM (inactive) | 10.4 µM (inactive) | 7.96 µM (inactive) | 17.2 µM (inactive) | 6.5 µM (inactive) | 23 µM (inactive) | 29.4 µM (inactive) | 18.1 µM (inactive) | 13.3 µM (inactive) | 2.52 µM (inactive) | 8.18 µM (inactive) | 24.1 µM (inactive) | 26.7 µM (inactive) |
| O=[N+]([O-])c1ccc(-n2nc3ccc4nonc4c3n2)cc1 | 29.6 µM (inactive) | > 100 µM (inactive) | 9.08 µM (inactive) | 20.4 µM (inactive) | 74.3 µM (inactive) | > 100 µM (inactive) | 22.7 µM (inactive) | 21.3 µM (inactive) | 31.2 µM (inactive) | 28.8 µM (inactive) | > 100 µM (inactive) | 37.3 µM (inactive) | > 100 µM (inactive) | > 100 µM (inactive) | 16.6 µM (inactive) | 28 µM (inactive) | 20 µM (inactive) | 24.2 µM (inactive) | 11.1 µM (inactive) | > 100 µM (inactive) |
| Cn1c2cc(Cl)ccc2c2ccc3c(c21)C(=O)C=CC3=O | 14.1 µM (inactive) | 14 µM (inactive) | 20.7 µM (inactive) | 13.8 µM (inactive) | 25.8 µM (inactive) | 25.4 µM (inactive) | 25.6 µM (inactive) | 45.7 µM (inactive) | 39.8 µM (inactive) | 8.13 µM (inactive) | 4.4 µM (inactive) | > 100 µM (inactive) | 86.5 µM (inactive) | 3.4 µM (inactive) | > 100 µM (inactive) | > 100 µM (inactive) | > 100 µM (inactive) | 16.5 µM (inactive) | > 71 µM (inactive) | 13.5 µM (inactive) |
| O=[N+]([O-])c1ccc(Sc2c3ccccc3nc3ccccc23)nc1 | 2.57 µM (inactive) | 13.2 µM (inactive) | 4.69 µM (inactive) | 3.79 µM (inactive) | 14.8 µM (inactive) | 8.55 µM (inactive) | 14.1 µM (inactive) | 5.08 µM (inactive) | 16.7 µM (inactive) | 2.73 µM (inactive) | 2.08 µM (inactive) | 23.2 µM (inactive) | 18.6 µM (inactive) | 2.08 µM (inactive) | 23.3 µM (inactive) | 26.1 µM (inactive) | 13.2 µM (inactive) | 2.11 µM (inactive) | 15.6 µM (inactive) | 4.48 µM (inactive) |
| O=C1/C(=N\NC(=S)NC2CCCCC2)c2cc([N+](=O)[O-])ccc2N1CN1CCOCC1 | 2.64 µM (inactive) | 3.72 µM (inactive) | 4.62 µM (inactive) | 4.06 µM (inactive) | 4.7 µM (inactive) | 6.79 µM (inactive) | 4.86 µM (inactive) | 6.31 µM (inactive) | 3.16 µM (inactive) | 10 µM (inactive) | 6.25 µM (inactive) | 2.55 µM (inactive) | 11.3 µM (inactive) | 3.61 µM (inactive) | 10.3 µM (inactive) | 3.67 µM (inactive) | 13 µM (inactive) | 11.4 µM (inactive) | 11.5 µM (inactive) | 3.32 µM (inactive) |
| CO/C(N)=C(C#N)/N=C/c1ccccc1 | > 100 µM (inactive) | > 100 µM (inactive) | 71 µM (inactive) | 31.8 µM (inactive) | > 100 µM (inactive) | > 100 µM (inactive) | > 100 µM (inactive) | 89.5 µM (inactive) | > 100 µM (inactive) | > 100 µM (inactive) | > 100 µM (inactive) | > 100 µM (inactive) | > 100 µM (inactive) | 58.6 µM (inactive) | > 100 µM (inactive) | > 100 µM (inactive) | > 100 µM (inactive) | 40.3 µM (inactive) | > 100 µM (inactive) | 35.7 µM (inactive) |
| C#C[C@]1(O)[C@@H](CO)O[C@@H](n2ccc(=O)[nH]c2=O)[C@@H]1O | 0.0692 µM (active) | < 0.0184 µM (active) | 0.43 µM (active) | 0.0339 µM (active) | 0.25 µM (active) | 0.173 µM (active) | 0.374 µM (active) | 0.0278 µM (active) | 0.441 µM (active) | 0.0214 µM (active) | 0.082 µM (active) | < 0.01 µM (active) | 0.406 µM (active) | < 0.0146 µM (active) | 0.147 µM (active) | 0.191 µM (active) | 1.97 µM (inactive) | 0.288 µM (active) | 0.357 µM (active) | 0.356 µM (active) |
| O=C1c2ccccc2C(=O)N1[C@@H](Cc1ccccc1)C(=O)n1cccc1CO | > 100 µM (inactive) | > 100 µM (inactive) | > 100 µM (inactive) | > 100 µM (inactive) | > 100 µM (inactive) | > 100 µM (inactive) | > 100 µM (inactive) | > 100 µM (inactive) | > 100 µM (inactive) | > 100 µM (inactive) | > 100 µM (inactive) | > 100 µM (inactive) | > 100 µM (inactive) | > 100 µM (inactive) | > 100 µM (inactive) | > 100 µM (inactive) | > 100 µM (inactive) | > 100 µM (inactive) | > 100 µM (inactive) | > 100 µM (inactive) |
| O=C1/C(=C/c2ccccc2)CCC/C1=C\c1ccc(O)c(CN2CCCCC2)c1 | 4.88 µM (inactive) | 2.82 µM (inactive) | 5.5 µM (inactive) | 4.32 µM (inactive) | 4.56 µM (inactive) | 2.55 µM (inactive) | 2.84 µM (inactive) | 6.92 µM (inactive) | 2.92 µM (inactive) | 2.24 µM (inactive) | 2.39 µM (inactive) | 4.66 µM (inactive) | 15.3 µM (inactive) | 3.27 µM (inactive) | 13.5 µM (inactive) | 5.35 µM (inactive) | 9.1 µM (inactive) | 11.4 µM (inactive) | 6.37 µM (inactive) | 3.49 µM (inactive) |
| COc1cc(CCNC2=CC(=O)c3cccnc3C2=O)ccc1O | 8.51 µM (inactive) | 0.944 µM (active) | 1.92 µM (inactive) | 0.16 µM (active) | 2.76 µM (inactive) | 0.173 µM (active) | 1.37 µM (inactive) | 0.916 µM (active) | 0.385 µM (active) | 0.721 µM (active) | 1.4 µM (inactive) | 1.09 µM (active) | 1.63 µM (inactive) | 0.483 µM (active) | 1.32 µM (inactive) | 1.32 µM (inactive) | 2.52 µM (inactive) | 1.1 µM (active) | 0.83 µM (active) | 2.5 µM (inactive) |
| COC(=O)[C@@H]1C[C@H]([Se]c2ccccc2)CN1C(=O)OCc1ccccc1 | 16 µM (inactive) | 45.5 µM (inactive) | 24.8 µM (inactive) | 20 µM (inactive) | 30.3 µM (inactive) | 24.3 µM (inactive) | 22.9 µM (inactive) | 24.4 µM (inactive) | 16.9 µM (inactive) | 46.2 µM (inactive) | 52.6 µM (inactive) | 24.8 µM (inactive) | > 100 µM (inactive) | 26.8 µM (inactive) | 98.6 µM (inactive) | 35.3 µM (inactive) | > 100 µM (inactive) | 26.2 µM (inactive) | 63.4 µM (inactive) | 22.6 µM (inactive) |
| O=C1/C(=C/c2cccc(O)c2)COc2ccccc21 | 6.47 µM (inactive) | 8.04 µM (inactive) | 5.32 µM (inactive) | 3.63 µM (inactive) | 7.83 µM (inactive) | 5.73 µM (inactive) | 15.5 µM (inactive) | 10.5 µM (inactive) | 9.2 µM (inactive) | 2.51 µM (inactive) | 2.19 µM (inactive) | 20.8 µM (inactive) | 8.67 µM (inactive) | 2.78 µM (inactive) | 15 µM (inactive) | 15.7 µM (inactive) | 21.3 µM (inactive) | 8.89 µM (inactive) | 15.5 µM (inactive) | 4.5 µM (inactive) |
